Measurements: patent publication US6551591B1, “Antibiotics from microbispora” (priority 2001, dated 2003)
≈ marks a conversion by molar mass, not a printed value. Read-outs that look alike come from different tables or passages of the source.

Tests used:
[1] = test system: MRSA (methicillin resistance Staphylococcus aureus) strains; assay: MIC50/MIC90 against a collection of genotypically characterized S. aureus isolates; assay type: cell-based
Protocol: (§1) The antibacterial activity of MF-BA-1768α1 and MF-BA-1768β1 were determined against a spectrum of bacterial strains using a broth microdilution assay performed as recommended by the NCCLS (NCCLS Document M7-A4, Vol 17 No.2). With the exception of Streptococci spp. and H. influenzae, the assay was performed in Cation Adjusted Mueller-Hinton Broth (CAMHB). For the Streptococci spp., CAMHB+2-5% Laked Horse Blood (REMEL) was used. For H. influenzae, Haemophilus Test Medium (REMEL) containing 2% Fildes Enrichment was used. The final bacterial inoculum was 5×10^5 CFU/ml in a final assay volume of 100 μl. Microtiter plates containing the test samples and the respective bacterial inoculum were incubated for 24 hours at 35° C. with the exception of E. coli plates, which were incubated for 20 hours at 35° C. Upon completion of incubation, the plates were read using a microtiter plate reader (Molecular Devices) at 650 nm as well as by visual observation using a microtiter plate reading mirror. […]
(§2) The antibacterial activity of MF-BA-1768β1 was further evaluated side-by-side with 9 reference antibiotics against a collection of genotypically well-characterized isolates of Staphylococcus aureus. These included 64 MRSA (methicillin resistance Staphylococcus aureus) strains and 19 MSSA (methicillin sensitive Staphylococcus aureus) strains representing 57 staphylococcal protein A genotypes and 22 coagulase A genotypes. The most common protein A genotypes found in the USA were represented by more than one isolate.

[2] = test system: MSSA (methicillin sensitive Staphylococcus aureus) strains; assay: as above; assay type: cell-based
Protocol: as §1, §2

[3] = Staphylococcus aureus, MRSA (64 strains), read-out: MIC50
[4] = Staphylococcus aureus, MRSA (64 strains), read-out: MIC90
[5] = Staphylococcus aureus, MSSA (19 strains), read-out: MIC50
[6] = Staphylococcus aureus, MSSA (19 strains), read-out: MIC90

Question: What does the source list for CO/N=C(\C(=O)N[C@@H]1C(=O)N2C(C(=O)O)=C(COC(C)=O)CS[C@H]12)c1csc(N)n1 [Cefotaxime]?
Answer: MIC50 [1, 3]: 512 µg/mL (≈ 1120 µM); MIC90 [1, 4]: > 512 µg/mL; MIC50 [2, 5]: 2 µg/mL (≈ 4.39 µM); MIC90 [2, 6]: 256 µg/mL (≈ 562 µM)

Question: C[C@@H](O)[C@H]1C(=O)N2C(C(=O)O)=C(SCCN=CN)C[C@H]12 [Imipenem] was tested. Which MIC50 [1, 3] did it give?
Answer: 8 µg/mL (≈ 26.7 µM)

Question: What about the MIC90 [1, 4] of the same compound?
Answer: 128 µg/mL (≈ 428 µM)

Question: What about the MIC50 [2, 5] of the same compound?
Answer: ≤ 0.5 µg/mL

Question: What about the MIC90 [2, 6] of the same compound?
Answer: 4 µg/mL (≈ 13.4 µM)

Question: How did the MIC50 [1, 3] turn out when CCOc1ccc2ccccc2c1C(=O)N[C@@H]1C(=O)N2[C@@H]1SC(C)(C)[C@@H]2C(=O)O [Nafcillin] was run?
Answer: 64 µg/mL (≈ 154 µM)

Question: And the MIC90 [1, 4]?
Answer: 256 µg/mL (≈ 618 µM)

Question: What about the MIC50 [2, 5] of the same compound?
Answer: ≤ 1 µg/mL

Question: What about the MIC90 [2, 6] of the same compound?
Answer: 16 µg/mL (≈ 38.6 µM)

Question: Which MIC50 [1, 3] does the source give for CC1COc2c(N3CCN(C)CC3)c(F)cc3c(=O)c(C(=O)O)cn1c23 (stereo not drawn) [Ofloxacin] here?
Answer: 0.5 µg/mL (≈ 1.38 µM)

Question: And the MIC90 [1, 4]?
Answer: 32 µg/mL (≈ 88.6 µM)

Question: And the MIC50 [2, 5]?
Answer: 0.5 µg/mL (≈ 1.38 µM)

Question: And the MIC90 [2, 6]?
Answer: 32 µg/mL (≈ 88.6 µM)

Question: Which MIC50 [1, 3] does the source give for Cc1onc(-c2ccccc2)c1C(=O)N[C@@H]1C(=O)N2[C@@H]1SC(C)(C)[C@@H]2C(=O)O [Oxacillin] here?
Answer: 128 µg/mL (≈ 319 µM)

Question: And the MIC90 [1, 4]?
Answer: 512 µg/mL (≈ 1280 µM)

Question: And the MIC50 [2, 5]?
Answer: ≤ 1 µg/mL

Question: And the MIC90 [2, 6]?
Answer: 64 µg/mL (≈ 159 µM)

Question: How did the MIC50 [1, 3] turn out when CO[C@H]1/C=C/O[C@@]2(C)Oc3c(C)c(O)c4c(O)c(c(/C=N/N5CCN(C)CC5)c(O)c4c3C2=O)NC(=O)/C(C)=C\C=C\[C@H](C)[C@H](O)[C@@H](C)[C@@H](O)[C@@H](C)[C@H](OC(C)=O)[C@@H]1C [Rifampicin] was run?
Answer: ≤ 0.0625 µg/mL

Question: What about the MIC90 [1, 4] of the same compound?
Answer: > 32 µg/mL

Question: And the MIC50 [2, 5]?
Answer: ≤ 0.0625 µg/mL

Question: And the MIC90 [2, 6]?
Answer: ≤ 0.0625 µg/mL

Question: Which results are given for CN(C)[C@@H]1C(O)=C(C(N)=O)C(=O)[C@@]2(O)C(O)=C3C(=O)c4c(O)cccc4[C@@](C)(O)[C@H]3C[C@@H]12 [Tetracycline]?
Answer: MIC50 [1, 3]: 0.25 µg/mL (≈ 0.563 µM); MIC90 [1, 4]: > 32 µg/mL; MIC50 [2, 5]: 0.25 µg/mL (≈ 0.563 µM); MIC90 [2, 6]: 32 µg/mL (≈ 72 µM)

Question: Which MIC50 ([1]; Staphylococcus aureus, MRSA) does the source give for CN[C@H](CC(C)C)C(=O)N[C@H]1C(=O)N[C@@H](CC(N)=O)C(=O)N[C@H]2C(=O)N[C@H]3C(=O)N[C@H](C(=O)N[C@H](C(=O)O)c4cc(O)cc(O)c4-c4cc3ccc4O)[C@H](O)c3ccc(c(Cl)c3)Oc3cc2cc(c3O[C@@H]2O[C@H](CO)[C@@H](O)[C@H](O)[C@H]2O[C@H]2C[C@](C)(N)[C@H](O)[C@H](C)O2)Oc2ccc(cc2Cl)[C@H]1O [Vancomycin] here?
Answer: 0.5 µg/mL (≈ 0.345 µM)

Question: And the MIC90 ([1]; Staphylococcus aureus, MRSA)?
Answer: 1 µg/mL (≈ 0.69 µM)

Question: And the MIC50 ([2]; Staphylococcus aureus, MSSA)?
Answer: 0.5 µg/mL (≈ 0.345 µM)

Question: And the MIC90 ([2]; Staphylococcus aureus, MSSA)?
Answer: 1 µg/mL (≈ 0.69 µM)

Question: How did the MIC50 ([1]; MRSA (64 strains)) turn out when Gentamicin was run?
Answer: 1 µg/mL

Question: And the MIC90 ([1]; MRSA (64 strains))?
Answer: >32 µg/mL

Question: What about the MIC50 ([2]; MSSA (19 strains)) of the same compound?
Answer: 0.5 µg/mL

Question: What about the MIC90 ([2]; MSSA (19 strains)) of the same compound?
Answer: 32 µg/mL
